Measurements taken from ChEMBL document CHEMBL1201862, “PubChem BioAssay data set” (2004).
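Compound exposure: 48 hours, 5 concentrations, 96-well plates. GI50 is the concentration that inhibits growth by half.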 The source made the active and inactive calls. No stated cut-off is given here; in the data, active = GI50 up to about 1.1 µM and inactive = higher.

What was measured:
Assay in all cases: DTP human tumour cell line panel, 48 h
KM12 = tested on: KM12
NCI-H23 = tested on: NCI-H23
OVCAR-4 = tested on: OVCAR-4
SN12C = tested on: SN12C
NCI/ADR-RES = tested on: NCI/ADR-RES
OVCAR-8 = tested on: OVCAR-8
OVCAR-3 = tested on: OVCAR-3
SNB-19 = tested on: SNB-19
CCRF-CEM = tested on: CCRF-CEM
ACHN = tested on: ACHN
HCT-116 = tested on: HCT-116
TK-10 = tested on: TK-10
786-0 = tested on: 786-0
MDA-N = tested on: MDA-N
UACC-257 = tested on: UACC-257
T47D = tested on: T47D
COLO 205 = tested on: COLO 205
IGROV-1 = tested on: IGROV-1
NCI-H522 = tested on: NCI-H522

Measured: GI50

O/N=C1/CCCc2nonc21
inactive: KM12 > 100 µM | NCI-H23 > 100 µM | OVCAR-4 > 100 µM | SN12C > 100 µM | NCI/ADR-RES > 100 µM | OVCAR-8 > 100 µM | OVCAR-3 > 100 µM | SNB-19 > 100 µM | CCRF-CEM > 100 µM | ACHN > 100 µM | HCT-116 > 100 µM | TK-10 > 100 µM | 786-0 > 100 µM | MDA-N > 100 µM | UACC-257 > 100 µM | T47D > 100 µM | COLO 205 > 100 µM | IGROV-1 > 100 µM

N=C(N)C(/N=N\c1ccccc1)C(N)=O (stereo not given)
inactive: KM12 59.4 µM | NCI-H23 > 100 µM | OVCAR-4 53.7 µM | SN12C > 100 µM | NCI/ADR-RES > 100 µM | OVCAR-8 > 100 µM | OVCAR-3 > 100 µM | SNB-19 > 100 µM | NCI-H522 > 100 µM | ACHN > 100 µM | HCT-116 > 100 µM | TK-10 96.4 µM | 786-0 > 100 µM | MDA-N > 100 µM | UACC-257 > 100 µM | T47D 57.7 µM | COLO 205 > 100 µM | IGROV-1 > 100 µM

CCC(CCN)(CCN)[N+](=O)[O-]
inactive: KM12 > 100 µM | SN12C > 100 µM | NCI/ADR-RES > 100 µM | OVCAR-8 > 100 µM | NCI-H522 58.3 µM | HCT-116 > 100 µM | 786-0 > 100 µM | MDA-N > 100 µM | UACC-257 > 100 µM | T47D > 100 µM | COLO 205 > 100 µM | IGROV-1 > 100 µM

O=C1/C(=C/c2ccc(Br)s2)NC(=S)N1CN1CCOCC1
inactive: KM12 84.3 µM | NCI-H23 36.3 µM | OVCAR-4 61.9 µM | SN12C 45.4 µM | NCI/ADR-RES 64.9 µM | OVCAR-8 61.5 µM | OVCAR-3 59.3 µM | SNB-19 > 100 µM | NCI-H522 64 µM | ACHN 48 µM | HCT-116 31.8 µM | TK-10 50.6 µM | 786-0 43 µM | MDA-N 52 µM | UACC-257 66.8 µM | T47D 49.5 µM | COLO 205 33 µM | IGROV-1 57.4 µM

Cc1ccc(S(=O)(=O)NC(=O)NC(Cc2ccc(O)cc2)C(=O)O)cc1 (stereo not given)
inactive: KM12 > 100 µM | NCI-H23 > 100 µM | OVCAR-4 > 100 µM | SN12C > 100 µM | NCI/ADR-RES > 100 µM | OVCAR-8 > 100 µM | SNB-19 > 100 µM | NCI-H522 > 100 µM | CCRF-CEM > 100 µM | HCT-116 > 100 µM | TK-10 > 100 µM | 786-0 > 100 µM | MDA-N > 100 µM | UACC-257 > 100 µM | T47D > 100 µM | COLO 205 > 100 µM | IGROV-1 > 100 µM

Cn1c(=O)cc(NCc2ccc(Cl)cc2)[nH]c1=O
inactive: KM12 > 100 µM | NCI-H23 > 100 µM | OVCAR-4 > 100 µM | SN12C > 100 µM | NCI/ADR-RES 72.9 µM | OVCAR-8 44.4 µM | OVCAR-3 > 100 µM | SNB-19 43.3 µM | NCI-H522 34.4 µM | ACHN 49.7 µM | HCT-116 52.6 µM | TK-10 21.5 µM | 786-0 54 µM | MDA-N > 100 µM | UACC-257 > 100 µM | T47D 91.2 µM | COLO 205 > 100 µM | IGROV-1 > 100 µM

CN/C(N)=N/N=C1/C(=O)Nc2ccccc21
inactive: KM12 > 100 µM | NCI-H23 > 100 µM | OVCAR-4 > 100 µM | SN12C > 100 µM | NCI/ADR-RES > 100 µM | OVCAR-8 > 100 µM | SNB-19 > 100 µM | NCI-H522 > 100 µM | CCRF-CEM > 100 µM | ACHN > 100 µM | HCT-116 > 100 µM | TK-10 > 100 µM | 786-0 > 100 µM | MDA-N > 100 µM | UACC-257 > 100 µM | T47D > 100 µM | COLO 205 > 100 µM | IGROV-1 > 100 µM

CCOC(=O)[C@@]12C3C=CC(CC3)[C@]1(C(=O)c1ccccc1)C(=O)C(=O)N2c1ccccc1 (stereo not given in full)
inactive: KM12 > 100 µM | NCI-H23 > 100 µM | OVCAR-4 > 100 µM | SN12C > 100 µM | NCI/ADR-RES > 100 µM | OVCAR-8 > 100 µM | OVCAR-3 > 100 µM | SNB-19 > 100 µM | NCI-H522 > 100 µM | ACHN > 100 µM | HCT-116 > 100 µM | TK-10 > 100 µM | 786-0 > 100 µM | MDA-N > 100 µM | T47D > 100 µM | COLO 205 > 100 µM

C=CC(c1ccccc1)C1(O)c2cccc(O)c2C(=O)c2c(O)cccc21 (stereo not given)
inactive: KM12 12.8 µM | NCI-H23 13.4 µM | OVCAR-4 13.7 µM | NCI/ADR-RES 11.5 µM | OVCAR-8 19.7 µM | OVCAR-3 18 µM | NCI-H522 11.7 µM | ACHN 17.8 µM | HCT-116 11.5 µM | TK-10 19.2 µM | 786-0 17.4 µM | MDA-N 5.57 µM | UACC-257 17.8 µM | T47D 16.9 µM | IGROV-1 14.9 µM
